The experiment has as its target T1, Succinate dehydrogenase [ubiquinone] iron-sulfur subunit, mitochondrial (Homo sapiens, UniProt P21912).
T1 sequence (P21912 whole entry): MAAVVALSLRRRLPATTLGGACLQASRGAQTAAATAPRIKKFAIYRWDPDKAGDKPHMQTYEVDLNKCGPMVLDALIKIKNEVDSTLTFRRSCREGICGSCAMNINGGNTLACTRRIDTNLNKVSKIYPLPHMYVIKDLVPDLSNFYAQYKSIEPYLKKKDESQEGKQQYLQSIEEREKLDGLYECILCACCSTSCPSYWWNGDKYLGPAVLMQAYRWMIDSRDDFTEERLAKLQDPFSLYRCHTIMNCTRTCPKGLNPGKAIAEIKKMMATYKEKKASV
In words: Apoptosis Inhibition Assay. The text has this:
In order to identify the target protein of tTC09 apoptosis inhibitors, we synthesized two sets of probes for target identification based on the SAR study. The first set of probes was designed for direct activity based protein profiling (ABPP) with biotin tag linked at different site. […] TC09 apoptosis inhibitors could stabilize the mitochondrial respiratory chain after Bim/tBid overexpression and help maintain the normal function of mitochondria. A second set of probes with a terminal alkyne group designed for click-reaction-assisted ABPP were also prepared.

Molecules are shown by their SMILES.

What is called EC50 is the concentration giving half of the maximal effect. For `CS(=O)(=O)c1nc(-c2cccs2)cc(C(F)(F)F)n1` [US11725000, Compound 1], the EC50 lay in the range of 1 to 10 µM.

Compound `O=S(=O)(Cc1ccc([N+]2([O-])CCOCC2)cc1)c1nc(-c2cccs2)cc(C(F)(F)F)n1` [US11725000, Compound 22] returned an EC50 of 1.41 µM.

The compound `CCC[S+]([O-])c1nc(-c2cccs2)cc(C(F)(F)F)n1` (stereo not given) [US11725000, Compound 5] showed an EC50 of 1.17 µM.

`O=S(=O)(Cc1ccc2c(ccc[n+]2[O-])c1)c1nc(-c2cccs2)cc(C(F)(F)F)n1` [US11725000, Compound 23] yielded an EC50 of 0.057 µM. This EC50 lies about 21-fold lower than the previous one.

Regarding `CCCS(=O)(=O)c1nc(-c2cccs2)cc(C(F)(F)F)n1` [US11725000, Compound 4], the EC50 was 4.21 µM.

Turning to `[O-][S+](CC1CC1)c1nc(-c2cccs2)cc(C(F)(F)F)n1` (stereo not given) [US11725000, Compound 10], it took 2.2 µM to reach a half-maximal effect (EC50).

Compound `Cc1cc(-c2cccs2)nc(S(C)(=O)=O)n1` [US11725000, Compound 34] came in with an EC50 of 0.817 µM. This EC50 is about 2.7-fold lower than that of the compound before.

The compound `O=S(=O)(Cc1cc(F)cc(F)c1)c1nc(-c2cccs2)cc(C(F)(F)F)n1` [US11725000, Compound 18] registered an EC50 of 1.16 µM.

`O=S(=O)(CCc1ccccc1)c1nc(-c2cccs2)cc(C(F)(F)F)n1` [US11725000, Compound 26] showed an EC50 of 0.094 µM.

Compound `[O-][S+](Cc1ccccc1)c1nc(-c2cccs2)cc(C(F)(F)F)n1` (stereo not given) [US11725000, Compound 12] showed a concentration giving a half-maximal response (EC50) of 3.49 µM.

In turn, `COC(=O)CCC[S+]([O-])c1nc(-c2cccs2)cc(C(F)(F)F)n1` (stereo not given) [US11725000, Compound 32] displayed an EC50 of 0.064 µM. Compared with the last compound, the EC50 is about 55-fold lower.

Take `CCOC(=O)CC[S+]([O-])c1nc(-c2cccs2)cc(C(F)(F)F)n1` (stereo not given) [US11725000, Compound 30]: the EC50 is 4.88 µM.

`[O-][S+](Cc1ccc2ncccc2c1)c1nc(-c2cccs2)cc(C(F)(F)F)n1` (stereo not given) [US11725000, Compound 24] gave an EC50 of 0.11 µM.

Regarding `O=C1CCCN1CC[S+]([O-])c1nc(-c2cccs2)cc(C(F)(F)F)n1` (stereo not given) [US11725000, Compound 25], the EC50 amounted to 0.069 µM.

`[O-][S+](CCc1ccccc1)c1nc(-c2cccs2)cc(C(F)(F)F)n1` (stereo not given) [US11725000, Compound 27] displayed an EC50 of 0.013 µM.

On to `C[S+]([O-])c1nc(Cl)cc(-c2cccs2)n1` (stereo not given) [US11725000, Compound 33], for which the EC50 is 4.48 µM. This EC50 lies about 340-fold higher than the previous one.

Compound `O=S(=O)(Cc1ccccc1)c1nc(-c2cccs2)cc(C(F)(F)F)n1` [US11725000, Compound 11] registered an EC50 of 6.64 µM.

Compound `C#Cc1cc(-c2cccs2)nc(S(C)(=O)=O)n1` [US11725000, Compound 35] came in with an EC50 of 0.995 µM.

For `CCOC(=O)CCS(=O)(=O)c1nc(-c2cccs2)cc(C(F)(F)F)n1` [US11725000, Compound 29], a half-maximal effect (EC50) was put at 0.104 µM.

For the compound `N#Cc1ccccc1C[S+]([O-])c1nc(-c2cccs2)cc(C(F)(F)F)n1` (stereo not given) [US11725000, Compound 14], the EC50 was 7.03 µM.

In turn, `O=C(O)CC[S+]([O-])c1nc(-c2cccs2)cc(C(F)(F)F)n1` (stereo not given) [US11725000, Compound 28] displayed an EC50 of 0.499 µM. This EC50 is about 14-fold lower than that of the compound before.

Compound `N#Cc1cccc(C[S+]([O-])c2nc(-c3cccs3)cc(C(F)(F)F)n2)c1` (stereo not given) [US11725000, Compound 15] registered an EC50 of 3.52 µM.

In the case of `[O-][S+](Cc1cc(F)cc(F)c1)c1nc(-c2cccs2)cc(C(F)(F)F)n1` (stereo not given) [US11725000, Compound 19], the midpoint of the response, the EC50, lay at 1.14 µM. This EC50 lies about 3.1-fold lower than the previous one.

Compound `N#Cc1ccccc1CS(=O)(=O)c1nc(-c2cccs2)cc(C(F)(F)F)n1` [US11725000, Compound 13] came in with an EC50 of 6.35 µM.

On to `[O-][S+](Cc1ccc(-c2ccccc2)cc1)c1nc(-c2cccs2)cc(C(F)(F)F)n1` (stereo not given) [US11725000, Compound 20], for which the EC50 amounted to 0.257 µM.

The values above are taken from BindingDB's records for patent US11725000 (National Institute of Biological Sciences, Beijing, 2023).
